Experimental data reported in patent US20220306695A1, “COMPSTATIN ANALOGUES AND THEIR MEDICAL USES” (priority 2019, published 2022).
Like-named read-outs stand apart in the source and are kept apart here. Starred links: 1 amine or outer side, 2 acyl side, 3 side chain; linkers in the order of their positions; H or OH if unused. Positions of bridges follow the written chain, without caps; N, C: chain ends. Non-standard residues stand in square brackets, D forms with d. Residues, ends and D or L forms follow the SMILES beside them. Groups on a side chain read outwards from the residue. *: point of attachment. Trp(1-Me) = Cn1cc(C[C@H](N)C(=O)O)c2ccccc21; C18 diacid = O=C(O)CCCCCCCCCCCCCCCCC(=O)*; γGlu = O=C(O)[C@H](CCC(=O)[*:2])N[*:1]; Sar = CNCC(=O)O

How the values were obtained:
[1] = tested on: classical complement pathway; assay: In vitro haemolysis assay (inhibition of classical complement pathway); type: cell-based, human; conditions: human serum, sensitized sheep red blood cells
Outline: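 Serially diluted compound (9 points) was preincubated 15 min at room temperature with diluted human serum, titrated per batch to give 70-90% maximal haemolysis, in Tris/casein buffer pH 7.4 with Mg2+/Ca2+. Antibody-sensitized sheep erythrocytes were then added for 30 min at 37° C, and the reaction was stopped with EDTA. Haemolysis was read at A405, with IC50 from 4PL fit.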

[2] = Solubility test at 10 mg/mL (visual inspection and light scattering); type: physicochemical; conditions: for Solubility, Condition 1 Acetate pH 4: 10 mg/mL compound in 100 mM acetate pH 4; for Solubility, Condition 2 Acetate pH 5: 10 mg/mL compound in 100 mM acetate pH 5; for Solubility, Condition 3 Phosphate pH 6: 10 mg/mL compound in 100 mM phosphate pH 6; for Solubility, Condition 4 Phosphate pH 7: 10 mg/mL compound in 100 mM phosphate pH 7; for Solubility, Condition 5 Phosphate pH 7.5: 10 mg/mL compound in 100 mM phosphate pH 7.5
[3] = Table 3, read-out: IC50[nM], in vitro analysis of inhibition of hemolysis

CC[C@H](C)[C@@H]1NC(=O)[C@@H](NC(=O)[C@H](Cc2ccc(O)cc2)NC(=O)[C@H](CCC(=O)O)NC(=O)[C@H](CO)NC(C)=O)CSSC[C@@H](C(=O)N(C)CC(=O)N[C@@H](CCC(=O)O)C(=O)NCC(=O)N[C@@H](CCCCN)C(=O)N[C@@H](CCCCNC(=O)CC[C@H](NC(=O)CNC(=O)CC[C@H](NC(=O)CCCCCCCCCCCCCCCCC(=O)O)C(=O)O)C(=O)O)C(N)=O)NC(=O)[C@H](CCCNC(=N)N)NC(=O)[C@H](Cc2c[nH]cn2)NC(=O)[C@H](CCC(=O)O)NC(=O)CNC(=O)[C@H](Cc2c[nH]c3ccccc23)NC(=O)[C@H](CC(=O)O)NC(=O)[C@H](CCC(N)=O)NC(=O)[C@H](Cc2cn(C)c3ccccc23)NC1=O [Compound 115] (Ac-SEYCI[Trp(1-Me)]QDWGEHRC[Sar]EGKK([γGlu-Gly-γGlu-C18 diacid])-NH2; disulfide 4-14)
IC50 [1, 3]: < 250 nM
Solubility, Condition 1 Acetate pH 4 [2]: − (denotes lack of solubility at the given condition, as UV absorbance at 340 nm exceeds 0.1 AU and/or it is visibly turbid or contains particles.)
Solubility, Condition 2 Acetate pH 5 [2]: − (denotes lack of solubility at the given condition, as UV absorbance at 340 nm exceeds 0.1 AU and/or it is visibly turbid or contains particles.)
Solubility, Condition 3 Phosphate pH 6 [2]: + (denotes solubility at the given condition, as determined by UV absorbance being less than 0.1 AU at 340 nm and the sample being clear when manually inspected.)
Solubility, Condition 4 Phosphate pH 7 [2]: + (denotes solubility at the given condition, as determined by UV absorbance being less than 0.1 AU at 340 nm and the sample being clear when manually inspected.)
Solubility, Condition 5 Phosphate pH 7.5 [2]: + (denotes solubility at the given condition, as determined by UV absorbance being less than 0.1 AU at 340 nm and the sample being clear when manually inspected.)

CC[C@H](C)[C@H](NC(C)=O)C(=O)N[C@H]1CSSC[C@@H](C(=O)N[C@H](C(=O)N[C@@H](CCC(=O)O)C(=O)N[C@@H](C)C(N)=O)[C@@H](C)O)NC(=O)[C@H](CCCNC(=N)N)NC(=O)[C@H](Cc2c[nH]cn2)NC(=O)[C@H](CCC(=O)O)NC(=O)CNC(=O)[C@H](Cc2c[nH]c3ccccc23)NC(=O)[C@H](CC(=O)O)NC(=O)[C@H](CCC(N)=O)NC(=O)[C@H](Cc2c[nH]c3ccccc23)NC(=O)[C@H]([C@@H](C)CC)NC1=O [Compound 25] (Ac-ICIWQDWGEHRCTEA-NH2; disulfide 2-12)
IC50 [1, 3]: < 100 nM
Solubility, Condition 1 Acetate pH 4 [2]: + (denotes solubility at the given condition, as determined by UV absorbance being less than 0.1 AU at 340 nm and the sample being clear when manually inspected.)
Solubility, Condition 2 Acetate pH 5 [2]: − (denotes lack of solubility at the given condition, as UV absorbance at 340 nm exceeds 0.1 AU and/or it is visibly turbid or contains particles.)
Solubility, Condition 3 Phosphate pH 6 [2]: − (denotes lack of solubility at the given condition, as UV absorbance at 340 nm exceeds 0.1 AU and/or it is visibly turbid or contains particles.)
Solubility, Condition 4 Phosphate pH 7 [2]: + (denotes solubility at the given condition, as determined by UV absorbance being less than 0.1 AU at 340 nm and the sample being clear when manually inspected.)
Solubility, Condition 5 Phosphate pH 7.5 [2]: + (denotes solubility at the given condition, as determined by UV absorbance being less than 0.1 AU at 340 nm and the sample being clear when manually inspected.)

CC[C@H](C)[C@H](NC(C)=O)C(=O)N[C@H]1CSSC[C@@H](C(=O)N[C@H](C(N)=O)[C@@H](C)O)NC(=O)[C@H](CCCNC(=N)N)NC(=O)[C@H](Cc2c[nH]cn2)NC(=O)[C@H](C)NC(=O)CNC(=O)[C@H](Cc2c[nH]c3ccccc23)NC(=O)[C@H](CC(=O)O)NC(=O)[C@H](CCC(N)=O)NC(=O)[C@H](Cc2c[nH]c3ccccc23)NC(=O)[C@H]([C@@H](C)CC)NC1=O [Compound 1] (Ac-ICIWQDWGAHRCT-NH2; disulfide 2-12)
IC50 ([1]; Table 2, read-out: CP hemolysis IC50): 150 nM
IC50 [1, 3]: < 250 nM
Solubility, Condition 1 Acetate pH 4 [2]: + (denotes solubility at the given condition, as determined by UV absorbance being less than 0.1 AU at 340 nm and the sample being clear when manually inspected.)
Solubility, Condition 2 Acetate pH 5 [2]: − (denotes lack of solubility at the given condition, as UV absorbance at 340 nm exceeds 0.1 AU and/or it is visibly turbid or contains particles.)
Solubility, Condition 3 Phosphate pH 6 [2]: − (denotes lack of solubility at the given condition, as UV absorbance at 340 nm exceeds 0.1 AU and/or it is visibly turbid or contains particles.)
Solubility, Condition 4 Phosphate pH 7 [2]: − (denotes lack of solubility at the given condition, as UV absorbance at 340 nm exceeds 0.1 AU and/or it is visibly turbid or contains particles.)
Solubility, Condition 5 Phosphate pH 7.5 [2]: − (denotes lack of solubility at the given condition, as UV absorbance at 340 nm exceeds 0.1 AU and/or it is visibly turbid or contains particles.)

CC[C@H](C)[C@H](NC(C)=O)C(=O)N[C@H]1CSSC[C@@H](C(=O)N[C@@H](CCC(=O)O)C(N)=O)NC(=O)[C@H](CCCNC(=N)N)NC(=O)[C@H](Cc2c[nH]cn2)NC(=O)[C@H](CCC(=O)O)NC(=O)CNC(=O)[C@H](Cc2c[nH]c3ccccc23)NC(=O)[C@H](CC(=O)O)NC(=O)[C@H](CCC(N)=O)NC(=O)[C@H](Cc2c[nH]c3ccccc23)NC(=O)[C@H]([C@@H](C)CC)NC1=O [Compound 22] (Ac-ICIWQDWGEHRCE-NH2; disulfide 2-12)
IC50 [1, 3]: < 100 nM
Solubility, Condition 1 Acetate pH 4 [2]: + (denotes solubility at the given condition, as determined by UV absorbance being less than 0.1 AU at 340 nm and the sample being clear when manually inspected.)
Solubility, Condition 2 Acetate pH 5 [2]: − (denotes lack of solubility at the given condition, as UV absorbance at 340 nm exceeds 0.1 AU and/or it is visibly turbid or contains particles.)
Solubility, Condition 3 Phosphate pH 6 [2]: − (denotes lack of solubility at the given condition, as UV absorbance at 340 nm exceeds 0.1 AU and/or it is visibly turbid or contains particles.)
Solubility, Condition 4 Phosphate pH 7 [2]: + (denotes solubility at the given condition, as determined by UV absorbance being less than 0.1 AU at 340 nm and the sample being clear when manually inspected.)
Solubility, Condition 5 Phosphate pH 7.5 [2]: + (denotes solubility at the given condition, as determined by UV absorbance being less than 0.1 AU at 340 nm and the sample being clear when manually inspected.)
